According to ChEMBL document CHEMBL1154173, “L-proline-catalysed facile green protocol for the synthesis and antimycobacterial evaluation of [1,4]-thiazines” (2009):
Converted amounts (≈) assume the structure as drawn.

Tests used:
[1] = system: Mycobacterium tuberculosis; assay: Antimycobacterial activity against Mycobacterium tuberculosis H37Rv by agar dilution method; type: functional
[2] = system: Mycolicibacterium smegmatis; assay: Antimycobacterial activity against […] Mycobacterium smegmatis MC2 by agar dilution method; type: functional

| Structure (SMILES) | MIC [1] [µM] | MIC [2] [µM] |
| --- | --- | --- |
| CCOC(=O)C1C(c2ccccc2Br)N(C)C(c2ccccc2Br)C(C(=O)c2ccc(Cl)cc2)S1(=O)=O (racemic) | 9.33 (≈ 6.25 µg/mL) | 18.7 (≈ 12.5 µg/mL) |
| CCOC(=O)C1C(c2ccco2)N(C)C(c2ccco2)C(C(=O)c2ccc(Cl)cc2)S1(=O)=O (racemic) | 6.36 (≈ 3.13 µg/mL) | 50.8 (≈ 25 µg/mL) |
| CCOC(=O)C1C(c2ccco2)NC(c2ccco2)C(C(=O)c2ccc(Cl)cc2)S1(=O)=O (racemic) | 6.55 (≈ 3.13 µg/mL) | – |
| CCOC(=O)C1C(c2cccc3ccccc23)NC(c2cccc3ccccc23)C(C(=O)c2ccc(Cl)cc2)S1(=O)=O (racemic) | 10.4 (≈ 6.25 µg/mL) | 20.9 (≈ 12.5 µg/mL) |
| CCOC(=O)C1C(c2ccc(Cl)cc2)N(Cc2ccccc2)C(c2ccc(Cl)cc2)C(C(=O)c2ccc(Cl)cc2)S1(=O)=O (racemic) | 9.51 (≈ 6.25 µg/mL) | 38 (≈ 25 µg/mL) |
| CCOC(=O)C1C(c2cccc([N+](=O)[O-])c2)N(C)C(c2cccc([N+](=O)[O-])c2)C(C(=O)c2ccc(Cl)cc2)S1(=O)=O (racemic) | 20.8 (≈ 12.5 µg/mL) | 41.5 (≈ 25 µg/mL) |
| CCOC(=O)C1C(c2ccccc2)N(Cc2ccccc2)C(c2ccccc2)C(C(=O)c2ccc(Cl)cc2)S1(=O)=O (racemic) | 42.5 (≈ 25 µg/mL) | 42.5 (≈ 25 µg/mL) |
| CCOC(=O)C1C(c2cccc(F)c2)N(Cc2ccccc2)C(c2cccc(F)c2)C(C(=O)c2ccc(Cl)cc2)S1(=O)=O (racemic) | 10 (≈ 6.25 µg/mL) | 40.1 (≈ 25 µg/mL) |
| CCOC(=O)C1C(c2ccc(Cl)cc2)N(C)C(c2ccc(Cl)cc2)C(C(=O)c2ccc(Cl)cc2)S1(=O)=O (racemic) | 5.39 (≈ 3.13 µg/mL) | 43 (≈ 25 µg/mL) |
| CCOC(=O)C1C(c2ccccc2[N+](=O)[O-])NC(c2ccccc2[N+](=O)[O-])C(C(=O)c2ccc(Cl)cc2)S1(=O)=O (racemic) | 3.03 (≈ 1.78 µg/mL) | – |
| CCOC(=O)C1C(c2ccc(C)cc2)NC(c2ccc(C)cc2)C(C(=O)c2ccc(Cl)cc2)S1(=O)=O (racemic) | 1.48 (≈ 0.779 µg/mL) | 2.97 (≈ 1.56 µg/mL) |
| CCOC(=O)C1C(c2ccccc2OC)NC(c2ccccc2OC)C(C(=O)c2ccc(Cl)cc2)S1(=O)=O (racemic) | 5.61 (≈ 3.13 µg/mL) | 11.2 (≈ 6.25 µg/mL) |
| CCOC(=O)C1C(c2ccc(Cl)cc2Cl)NC(c2ccc(Cl)cc2Cl)C(C(=O)c2ccc(Cl)cc2)S1(=O)=O (racemic) | 1.23 (≈ 0.782 µg/mL) | – |
| CCOC(=O)C1C(c2ccc(OC)cc2)NC(c2ccc(OC)cc2)C(C(=O)c2ccc(Cl)cc2)S1(=O)=O (racemic) | 0.72 (≈ 0.402 µg/mL) | 1.4 (≈ 0.781 µg/mL) |
| CCOC(=O)C1C(c2ccccc2)N(C)C(c2ccccc2)C(C(=O)c2ccc(Cl)cc2)S1(=O)=O (racemic) | 24.4 (≈ 12.5 µg/mL) | 48.8 (≈ 25 µg/mL) |
| CCOC(=O)C1C(c2ccc(Cl)cc2)NC(c2ccc(Cl)cc2)C(C(=O)c2ccc(Cl)cc2)S1(=O)=O (racemic) | 2.75 (≈ 1.56 µg/mL) | 11 (≈ 6.25 µg/mL) |

| Structure (SMILES) | MIC [1] [µM] | MIC [2] [µM] |
| --- | --- | --- |
| CCOC(=O)C1C(c2ccccc2)NC(c2ccccc2)C(C(=O)c2ccc(Cl)cc2)S1(=O)=O (racemic) | 12.6 (≈ 6.25 µg/mL) | 50.2 (≈ 25 µg/mL) |
| CCOC(=O)C1C(c2ccc(N(C)C)cc2)NC(c2ccc(N(C)C)cc2)C(C(=O)c2ccc(Cl)cc2)S1(=O)=O (racemic) | 10.7 (≈ 6.25 µg/mL) | – |
| CCOC(=O)C1C(c2ccccc2C)N(C)C(c2ccccc2C)C(C(=O)c2ccc(Cl)cc2)S1(=O)=O (racemic) | 11.6 (≈ 6.25 µg/mL) | 23.1 (≈ 12.5 µg/mL) |
| CCOC(=O)C1C(c2ccc(C)cc2)N(C)C(c2ccc(C)cc2)C(C(=O)c2ccc(Cl)cc2)S1(=O)=O (racemic) | 5.8 (≈ 3.13 µg/mL) | – |
| CCOC(=O)C1C(c2cccc([N+](=O)[O-])c2)NC(c2cccc([N+](=O)[O-])c2)C(C(=O)c2ccc(Cl)cc2)S1(=O)=O (racemic) | 5.32 (≈ 3.13 µg/mL) | 10.6 (≈ 6.25 µg/mL) |
| CCOC(=O)C1C(c2cccc(F)c2)NC(c2cccc(F)c2)C(C(=O)c2ccc(Cl)cc2)S1(=O)=O (racemic) | 5.86 (≈ 3.13 µg/mL) | – |
| CCOC(=O)C1C(c2cccs2)NC(c2cccs2)C(C(=O)c2ccc(Cl)cc2)S1(=O)=O (racemic) | 12.2 (≈ 6.25 µg/mL) | 12.2 (≈ 6.25 µg/mL) |
| CCOC(=O)C1C(c2ccc([N+](=O)[O-])cc2)NC(c2ccc([N+](=O)[O-])cc2)C(C(=O)c2ccc(Cl)cc2)S1(=O)=O (racemic) | 0.68 (≈ 0.4 µg/mL) | 10.6 (≈ 6.25 µg/mL) |
| CCOC(=O)C1C(c2ccc(C)cc2)N(Cc2ccccc2)C(c2ccc(C)cc2)C(C(=O)c2ccc(Cl)cc2)S1(=O)=O (racemic) | 20.3 (≈ 12.5 µg/mL) | 40.6 (≈ 25 µg/mL) |
| CCOC(=O)C1C(c2ccc(OC)cc2)N(Cc2ccccc2)C(c2ccc(OC)cc2)C(C(=O)c2ccc(Cl)cc2)S1(=O)=O (racemic) | 9.64 (≈ 6.25 µg/mL) | – |
| CCOC(=O)C1C(c2ccc(F)cc2)N(Cc2ccccc2)C(c2ccc(F)cc2)C(C(=O)c2ccc(Cl)cc2)S1(=O)=O (racemic) | 5.02 (≈ 3.13 µg/mL) | 40.1 (≈ 25 µg/mL) |
| CC[C@@H](CO)NCCN[C@@H](CC)CO [ETHAMBUTOL] | 7.64 (≈ 1.56 µg/mL) | – |
| NNC(=O)c1ccncc1 [ISONIAZID] | 0.36 (≈ 0.0494 µg/mL) | 45.6 (≈ 6.25 µg/mL) |
| NC(=O)c1cnccn1 [PYRAZINAMIDE] | 50.8 (≈ 6.25 µg/mL) | – |
| CO[C@H]1/C=C/O[C@@]2(C)Oc3c(C)c(O)c4c(O)c(c(/C=N/N5CCN(C)CC5)c(O)c4c3C2=O)NC(=O)/C(C)=C\C=C\[C@H](C)[C@H](O)[C@@H](C)[C@@H](O)[C@@H](C)[C@H](OC(C)=O)[C@@H]1C [RIFAMPIN] | 0.12 (≈ 0.0988 µg/mL) | – |
